Measurements from patent US20230276831A1, “Food/Beverage Article” (Kikkoman Corporation, priority 2020, published 2023).

What was measured:
Assay type in all cases: cell-based
[1] = tested on: Lactobacillus fructivores (NBRC 13954); assay: Antimicrobial action of oxygen-containing heterocyclic compounds in soy sauce (Test Example 7); conditions: NBRC13954, 168 h, salt 4% (w/v), alcohol 5% (v/v)
Protocol: (§1) Commercially available whole soybean soy sauce (produced by Kikkoman Corporation) was electrodialyzed and then concentrated under reduced pressure to produce soy sauce at a salt concentration of 0% (w/v) and an alcohol concentration of 0% (v/v). Then, salt and/or alcohol was added to the above-mentioned obtained soy sauce, and the mixture was then heat-treated to produce soy sauce at a salt concentration of 4% (w/v) and an alcohol concentration of 5% (v/v).
The test substance described in Table 21 was added to the soy sauce produced in Test Example 6 to concentrations of 0.1 ppm, 0.5 ppm, 1 ppm, 5 ppm, 25 ppm, and 50 ppm. Lactic acid bacteria (Lactobacillus fructivores (NBRC 13954)) were then added to 10^4 to 10^5 cells/mL and cultured at 30° C. for 7 days. After the culture, the number of lactic acid bacteria was measured using Difco Lactobacilli MRS Agar. Soy sauce to which the test substance was not added was used as a control group, and the antimicrobial activity was evaluated in comparison with the number of lactic acid bacteria in the control group. The evaluation was performed using the following criterion.
• A: The bacterial count decreases to less than 10% of the bacterial count of a control group. • B: The bacterial count decreases to 10% or more and less than 50% of the bacterial count of the control group. • C: The bacterial count decreases to 50% or more and less than 100% of the bacterial count of the control group. • D: The bacterial count is the same as the bacterial count of the control group.

[2] = tested on: Lactobacillus rennini (DSM 20253); assay: Antimicrobial action of licoricidin in liquid dressing, lightly-pickled vegetables and cooking vinegar (Test Example 9); conditions: conclusion of Test Example 9
Description: Specifically, Koikuchi soy sauce (produced by Kikkoman Corporation), table vinegar, mirin, granulated sugar, kelp stock, and water were blended in amounts shown in the following Table 24, and the resulting mixture was heated to produce liquid dressing. The salt concentration of the obtained liquid dressing was 2.6% (w/v), the alcohol concentration was 0.8% (v/v), the pH was 4.2.
Specifically, Usukuchi soy sauce (produced by Kikkoman Corporation), table vinegar, corn syrup, isomerized sugar, salt, granulated sugar, sodium glutamate (MSG), lemon fruit juice, kelp stock, and water were blended in amounts shown in the following Table 25, and the mixture was heated to produce seasoning liquid for lightly-pickled vegetables. Chinese cabbages were fully soaked therein to produce lightly-pickled vegetables. […]
Licoricidin (produced by ChemFaces) was added to each of the above-mentioned produced liquid dressing, lightly-pickled vegetables, and cooking vinegar to concentrations of 1 ppm, 5 ppm, 10 ppm, 25 ppm, and 50 ppm. […] After the culture, the number of lactic acid bacteria was measured using the GAM agar medium “Nissui”. The liquid dressing, the lightly-pickled vegetables, and the cooking vinegar to which licoricidin was not added were used as respective control groups, and the antimicrobial activity was evaluated in comparison with the number of lactic acid bacteria in the control group. […]

[3] = tested on: Lactobacillus rennini (DSM 20253); assay: Antimicrobial action of oxygen-containing heterocyclic compounds in soy sauce (Test Example 6); conditions: Loigolactobacillus rennini, DSM20253, 168 h, salt 4% (w/v), alcohol 5% (v/v)
Protocol: as §1
The test substance described in Table 20 was added to the above-mentioned produced soy sauce to concentrations of 1 to 100 ppm. Lactic acid bacteria (Lactobacillus rennini (DSM 20253)) were then added to 10^6 to 10^7 cells/mL and cultured at 30° C. for 7 days. After the culture, the number of lactic acid bacteria was measured using the GAM agar medium “Nissui”. Soy sauce to which licoricidin was not added was used as a control group, and the antimicrobial activity was evaluated in comparison with the number of lactic acid bacteria in the control group. The evaluation was performed using the criterion shown below.
• A: The bacterial count decreases to less than 10% of the bacterial count of the control group. • B: The bacterial count decreases to 10% or more and less than 50% of the bacterial count of control group. • C: The bacterial count decreases to 50% or more and less than 100% of the bacterial count of the control group. • D: The bacterial count is the same as the bacterial count of the control group. • -: Not evaluated

Q: Which results are given for COc1c(CC=C(C)C)c(O)cc2c1C[C@H](c1ccc(O)c(CC=C(C)C)c1O)CO2 [Licoricidin, 4-[(R)-7-hydroxy-5-methoxy-6-(3-methyl-2-butenyl)chroman-3-yl]-2-(3-methyl-2-butenyl)-1,3-benzenediol]?
A: activity at 0.1 ppm ([1]; test substance 0.1 ppm): 10 to 50%; activity at 0.5 ppm ([1]; test substance 0.5 ppm): 10 to 50%; activity at 1 ppm ([1]; test substance 1 ppm): 10 to 50%; activity at 5 ppm ([1]; test substance 5 ppm): 10 to 50%; activity at 25 ppm ([1]; test substance 25 ppm): < 10%; activity at 50 ppm ([1]; test substance 50 ppm): < 10%; Antimicrobial activity to lactic acid bacteria in the various liquid seasonings and the food [2]: exhibited antimicrobial activity; activity at 5 ppm ([3]; test substance 5 ppm): < 10%; activity at 10 ppm ([3]; test substance 10 ppm): < 10%; activity at 25 ppm ([3]; test substance 25 ppm): < 10%; activity at 50 ppm ([3]; test substance 50 ppm): < 10%
